Experimental findings from patent US10030047B2 (Hoffmann-La Roche Inc., priority 2015, dated 2018) are described below.

Molecules are shown by their SMILES. ≈ marks a conversion by molar mass, not a printed value.

In the first experiment the test system is A. baumannii strain ATCC19606. The experiment is described as follows: Minimum inhibitory concentration (MIC) determination, microbroth dilution (CLSI). As to conditions: Acinetobacter baumannii, ATCC19606, 20 h, read-out: ATCC19606 MIC. Format: cell-based. On the procedure: The in vitro antimicrobial activity of the compounds was determined through microbroth minimum inhibitory concentration (MIC) methodology performed according to the Clinical and Laboratory Standard Institute guidelines (CLSI—M07-A9 Jan. 2012. Methods for Dilution Antimicrobial Susceptibility Tests for Bacteria That Grow Aerobically; Approved Standard—Ninth Edition, Clinical and Laboratory Standards Institute, Wayne/PA, US and the CLSI—M100-S24 Jan. 2014. Performance Standards for Antimicrobial Susceptibility Testing; Approved Standard—Fourth Informational Supplement, Clinical and Laboratory Standards Institute, Wayne/PA, US).
The compound stock solution was freshly prepared at 10× the required top concentration for the MIC determination, i.e. at 1280 mg/L, by reconstitution of the dry compound in 50:50 water:DMSO.
Polystyrene non-treated 96 wells microtiter plates were used for preparing panel containing compound serial twofold diluted at two times the final testing concentration (e.g. range from 64 to 0.06 μg/ml) in cation adjusted Mueller Hinton broth medium (CAMHB).
Inoculum was prepared by the “direct colony suspension method”. Colonies of A. baumannii ATCC19606 or clinical isolates were suspended in saline solution and adjusted to 0.5 McFarland, diluted 100 times in CAMHB broth and 50 μl added to each well (final concentration of cells ˜5×10^(5) CFU/ml and Final volume/well of 100 μl). Microtiter plates were sealed and incubated at 35±2° C.
MICs values were read after 20 hours of incubation and recorded as the lowest concentration of the antimicrobial that inhibits more or equal to 80% of growth of the organism as detected by the unaided eye and using a microtiter plate optical density reader (OD 600 nm).
Tables 2, 3, 4 and 5 provide the minimum inhibitory concentration (MIC) in microgram per milliliter of the compounds of present invention obtained against the A. baumannii strain ATCC19606 (Tables 2, 3, 4 and 5).
For orientation: Broth dilution looks for growth in wells or tubes with falling amounts of substance.
`CN1C(=O)[C@H](CCCN)NC(=O)[C@H](CCCN)NCc2ccccc2Sc2ccccc2CNC(=O)[C@@H]1Cc1c[nH]c2ccccc12` [Example 2, (12S,15S,18S)— 15,18-Bis-(3-amino-propyl)-12-(1H-indol-3-ylmethyl)-13-methyl-2-thia-10,13,16,19-tetraaza-tricyclo[19.4.0.0*3,8*]pentacosa-1(21),3,5,7,22,24-hexaene-11,14,17-trione]: the MIC (as a rule, the smallest concentration in the dilution series that meets the test's criterion for growth inhibition) turned out to be 4 mg/L (≈ 6.1 µM).

The experiment is the same for the next values; noted with them: Acinetobacter baumannii; A. baumannii ATCC19606; CAMHB; read after 20 hours; >=80% growth inhibition; read-out: ATCC19606 MIC.
With `CN1C(=O)[C@H](CCCCN)NC(=O)[C@H](CCCN)NCc2ccccc2Sc2ccccc2CNC(=O)[C@@H]1Cc1c[nH]c2ccccc12` [Example 1, (12S,15S,18S)-15-(4-Amino-butyl)-18-(3-amino-propyl)-12-(1H-indol-3-ylmethyl)-13-methyl-2-thia-10,13,16,19-tetraaza-tricyclo[19.4.0.0*3,8*]pentacosa-1(21),3,5,7,22,24-hexaene-11,14,17-trione], the MIC stood at 4 mg/L (≈ 5.97 µM).

As to `CN1C(=O)[C@H](CCCCN)NC(=O)[C@H](C2CCNCC2)NCc2ccccc2Sc2ccccc2CNC(=O)[C@@H]1Cc1c[nH]c2ccccc12` [Example 3, (12S,15S,18S)-15-(4-Amino-butyl)-12-(1H-indol-3-ylmethyl)-13-methyl-18-piperidin-4-yl-2-thia-10,13,16,19-tetraaza-tricyclo[19.4.0.0*3,8*]pentacosa-1(21),3,5,7,22,24-hexaene-11,14,17-trione], the MIC worked out at 16 mg/L (≈ 23 µM).

As for `CN1C(=O)[C@H](CCCCN)NC(=O)[C@H](CCCN)NCc2ccccc2Sc2ccc(Cl)cc2CNC(=O)[C@@H]1Cc1c[nH]c2ccccc12` [Example 4, (12S,15S,18S)-15-(4-Amino-butyl)-18-(3-amino-propyl)-6-chloro-12-(1H-indol-3-ylmethyl)-13-methyl-2-thia-10,13,16,19-tetraaza-tricyclo[19.4.0.0*3,8*]pentacosa-1(21),3,5,7,22,24-hexaene-11,14,17-trione], the minimal inhibitory concentration (MIC) came out at 1 mg/L (≈ 1.42 µM).

`CN1C(=O)[C@H](CCCCN)NC(=O)[C@H](CNC(=N)N)NCc2ccccc2Sc2ccccc2CNC(=O)[C@@H]1Cc1c[nH]c2ccccc12` [Example 5, N-[(11S,14S,17S)-14-(4-Amino-butyl)-17-(1H-indol-3-ylmethyl)-16-methyl-12,15,18-trioxo-2-thia-10,13,16,19-tetraaza-tricyclo[19.4.0.0*3,8*]pentacosa-1(25),3(8),4,6,21,23-hexaen-11-ylmethyl]-guanidine]: the MIC is 32 mg/L (≈ 46.8 µM). As to `CN1C(=O)[C@H](CCCCN)NC(=O)[C@H](CCCN)NCc2ccccc2Sc2cc(Cl)ccc2CNC(=O)[C@@H]1Cc1c[nH]c2ccccc12` [Example 6, (12S,15S,18S)-15-(4-Amino-butyl)-18-(3-amino-propyl)-5-chloro-12-(1H-indol-3-ylmethyl)-13-methyl-2-thia-10,13,16,19-tetraaza-tricyclo[19.4.0.0*3,8*]pentacosa-1(21),3,5,7,22,24-hexaene-11,14,17-trione], the MIC came to 2 mg/L (≈ 2.84 µM). Same read-out and setting: next, `COc1ccc2c(c1)CNC(=O)[C@H](Cc1c[nH]c3ccccc13)N(C)C(=O)[C@H](CCCCN)NC(=O)[C@H](CCCN)NCc1ccccc1S2` [Example 7, (12S,15S,18S)-15-(4-Amino-butyl)-18-(3-amino-propyl)-12-(1H-indol-3-ylmethyl)-6-methoxy-13-methyl-2-thia-10,13,16,19-tetraaza-tricyclo[19.4.0.0*3,8*]pentacosa-1(21),3,5,7,22,24-hexaene-11,14,17-trione]: 0.5 mg/L (≈ 0.714 µM).

In the case of `Cc1cccc2c1Sc1ccccc1CN[C@@H](CCCN)C(=O)N[C@@H](CCCCN)C(=O)N(C)[C@@H](Cc1c[nH]c3ccccc13)C(=O)NC2` [Example 8, (12S,15S,18S)-15-(4-Amino-butyl)-18-(3-amino-propyl)-12-(1H-indol-3-ylmethyl)-4,13-dimethyl-2-thia-10,13,16,19-tetraaza-tricyclo[19.4.0.0*3,8*]pentacosa-1(21),3,5,7,22,24-hexaene-11,14,17-trione], the MIC came out at 0.5 mg/L (≈ 0.731 µM).

As for `Cc1ccc2c(c1)Sc1ccccc1CN[C@@H](CCCN)C(=O)N[C@@H](CCCCN)C(=O)N(C)[C@@H](Cc1c[nH]c3ccccc13)C(=O)NC2` [Example 9, (12S,15S,18S)-15-(4-Amino-butyl)-18-(3-amino-propyl)-12-(1H-indol-3-ylmethyl)-5,13-dimethyl-2-thia-10,13,16,19-tetraaza-tricyclo[19.4.0.0*3,8*]pentacosa-1(21),3,5,7,22,24-hexaene-11,14,17-trione], the MIC was found to be 16 mg/L (≈ 23.4 µM). The same measure, in the same setting: next, `Cc1ccc2c(c1)CNC(=O)[C@H](Cc1c[nH]c3ccccc13)N(C)C(=O)[C@H](CCCCN)NC(=O)[C@H](CCCN)NCc1ccccc1S2` [Example 10, (12S,15S,18S)-15-(4-Amino-butyl)-18-(3-amino-propyl)-12-(1H-indol-3-ylmethyl)-6,13-dimethyl-2-thia-10,13,16,19-tetraaza-tricyclo[19.4.0.0*3,8*]pentacosa-1(21),3,5,7,22,24-hexaene-11,14,17-trione]: 2 mg/L (≈ 2.92 µM); `CN1C(=O)[C@H](CCCCN)NC(=O)[C@H](CCCN)NCc2ccccc2Sc2c(Cl)cccc2CNC(=O)[C@@H]1Cc1c[nH]c2ccccc12` [Example 11, (12S,15S,18S)-15-(4-Amino-butyl)-18-(3-amino-propyl)-4-chloro-12-(1H-indol-3-ylmethyl)-13-methyl-2-thia-10,13,16,19-tetraaza-tricyclo[19.4.0.0*3,8*]pentacosa-1(21),3,5,7,22,24-hexaene-11,14,17-trione]: 0.5 mg/L (≈ 0.71 µM); `CN1C(=O)[C@H](CCCCN)NC(=O)[C@H](CCCN)NCc2ccccc2Sc2c(cccc2C(F)(F)F)CNC(=O)[C@@H]1Cc1c[nH]c2ccccc12` [Example 12, (12S,15S,18S)-15-(4-Amino-butyl)-18-(3-amino-propyl)-12-(1H-indol-3-ylmethyl)-13-methyl-4-trifluoromethyl-2-thia-10,13,16,19-tetraaza-tricyclo[19.4.0.0*3,8*]pentacosa-1(21),3,5,7,22,24-hexaene-11,14,17-trione]: 0.5 mg/L (≈ 0.678 µM).

`CN1C(=O)[C@H](CCCCN)NC(=O)[C@H](CCCN)NCc2ccccc2Sc2cc(C(F)(F)F)ccc2CNC(=O)[C@@H]1Cc1c[nH]c2ccccc12` [Example 13, (12S,15S,18S)-15-(4-Amino-butyl)-18-(3-amino-propyl)-12-(1H-indol-3-ylmethyl)-13-methyl-5-trifluoromethyl-2-thia-10,13,16,19-tetraaza-tricyclo[19.4.0.0*3,8*]pentacosa-1(21),3,5,7,22,24-hexaene-11,14,17-trione]: the MIC was 2 mg/L (≈ 2.71 µM). The same measure, in the same setting: next, `CN1C(=O)[C@H](CCCCN)NC(=O)[C@H](CCCN)NCc2ccccc2Sc2ccc(C(F)(F)F)cc2CNC(=O)[C@@H]1Cc1c[nH]c2ccccc12` [Example 14, (12S,15S,18S)-15-(4-Amino-butyl)-18-(3-amino-propyl)-12-(1H-indol-3-ylmethyl)-13-methyl-6-trifluoromethyl-2-thia-10,13,16,19-tetraaza-tricyclo[19.4.0.0*3,8*]pentacosa-1(21),3,5,7,22,24-hexaene-11,14,17-trione]: 1 mg/L (≈ 1.36 µM); `CN1C(=O)[C@H](CCCCN)NC(=O)[C@H](CCCN)NCc2ccccc2Sc2ccccc2CNC(=O)[C@@H]1Cc1c[nH]c2cc(Cl)ccc12` [Example 15, (12S,15S,18S)-15-(4-Amino-butyl)-18-(3-amino-propyl)-12-(6-chloro-1H-indol-3-ylmethyl)-13-methyl-2-thia-10,13,16,19-tetraaza-tricyclo[19.4.0.0*3,8*]pentacosa-1(21),3,5,7,22,24-hexaene-11,14,17-trione]: 32 mg/L (≈ 45.4 µM); `CN1C(=O)[C@H](CCCCN)NC(=O)[C@H](CCCN)NCc2ccccc2Sc2ccccc2CNC(=O)[C@@H]1Cc1cn(C)c2cc(Cl)ccc12` [Example 16, (12S,15S,18S)-15-(4-Amino-butyl)-18-(3-amino-propyl)-12-(6-chloro-1-methyl-1H-indol-3-ylmethyl)-13-methyl-2-thia-10,13,16,19-tetraaza-tricyclo[19.4.0.0*3,8*]pentacosa-1(21),3,5,7,22,24-hexaene-11,14,17-trione]: 32 mg/L (≈ 44.5 µM). The same measure, in the same setting: the value for `CN1C(=O)[C@H](CCCCN)NC(=O)[C@H](CCCN)NCc2ccccc2Sc2ccc(Cl)cc2CNC(=O)[C@@H]1Cc1cn(C)c2ccccc12` [Example 17, (12S,15S,18S)-15-(4-Amino-butyl)-18-(3-amino-propyl)-6-chloro-13-methyl-12-(1-methyl-1H-indol-3-ylmethyl)-2-thia-10,13,16,19-tetraaza-tricyclo[19.4.0.0*3,8*]pentacosa-1(21),3,5,7,22,24-hexaene-11,14,17-trione] was 32 mg/L (≈ 44.5 µM).
